Here are results for five compounds from patent US8101570B2, “Single branch heparin-binding growth factor analogs” (BioSurface Engineering Technologies, Inc., priority 2005, dated 2012).

One experiment deals with T1, PDGF R Beta (Homo sapiens, UniProt P09619).
T1 construct: Soluble PDGF receptor, recombinant chimera of human PDGF-R-alpha and PSGF-R-beta; purchased R&D Systems
Kind of experiment: Surface plasmon resonance (BIAcore) binding to immobilized soluble PDGF receptor beta. Particulars: for kon / koff: SPR, 1:1 fit; for kon: read-out: Ka (association rate constant); for koff: read-out: Kd (dissociation rate constant). The procedure:
(§1) Surface Plasmon Resonance (SPR) Analysis. Real-time biomolecular interactions were analyzed with a BIAcore 2000 system (Biacore Inc., Piscataway, N.J.). Soluble PDGF receptor, recombinant chimera of human PDGF-R-alpha and PSGF-R-beta (R &D Systems, Minneapolis, Minn.), was immobilized on research grade CM5 chips (Biacore Inc., Piscataway, N.J.). Following activation with EDC/NHS, the receptors were immobilized on activated CM5 chips. To obtain kinetic data, different concentrations of analytes in HBS-EP buffer were injected over the sensor chip at a flow rate of 50 μl/min. Peptide binding was measured in resonance units (RU). At the end of each sample injection (120 s) buffer was passed over the sensor surface to monitor the dissociation phase. Reference responses from blank flow cells were subtracted from receptor-containing flow cells for each analyte injection and the kinetic parameters for each interaction were determined by globally fitting the experimental data to a 1:1 interaction with BIAEVALUATION software (Biacore Inc., Piscataway, N.J.). The association rate constant and the dissociation rate constant (ka and kd, respectively), and the equilibrium dissociation constant (KD) are presented in the Table 3 for the receptors and PBA2-1.
as §1, with “4” for “3”
(In general: SPR reads the build-up and loss of mass on a sensor chip optically.)

A further experiment concerns the target T2, human PDGF-R-alpha (Homo sapiens, UniProt P16234).
T2 construct: Soluble PDGF receptor, recombinant chimera of human PDGF-R-alpha; purchased R&D Systems
Nature of the experiment: Surface plasmon resonance (BIAcore) binding to immobilized soluble PDGF receptor alpha. Particulars: SPR, 1:1 fit; for kon: read-out: Ka (association rate constant); for koff: read-out: Kd (dissociation rate constant). The protocol:
as §1
as §1, with “4” for “3”

Experiment [1] has as its system C2C12 cells. Nature of the experiment: Alkaline phosphatase assay in C2C12 cells in the presence of recombinant BMP-7. It counts as cell-based, mouse. Conditions: serum low medium containing BMP-7, FIG. 8. The procedure:
This peptide was evaluated using C2C12 cells and in the presence of recombinant BMP-7 and using alkaline phosphatase production as an endpoint. Alkaline phosphatase assays were performed using mouse the pluripotent cell lines C2C12. Cells were plated in 96-well (1×10^4/well) plates and allowed 24 hours to attach. The medium was then replaced with a serum low medium containing BMP-7 and/or B7A1-6. After several days, cells were rinsed, lysed, and alkaline phosphatase activity measured using p-nitrophenylphosphate as substrate.

The subject of another experiment is Sup-T1 cells. Kind of experiment: Sup-T1 cell proliferation. In kind it is cell-based. Particulars: low serum, 3 days, FIG. 2. The procedure:
Cell proliferation. Sup-T1 cells were obtained from the American Type Culture Collection (Manassas, Va.) and were grown in culture. To monitor the effect of SD1-1 on cell proliferation, Sup-T1 cells were seeded at 100,000 cells per well of a 96-well plate and allowed to attach. The medium was changed to one containing low serum plus SD1-1 and the cells incubated for 3 days after which time the relative cell number was determined using a commercially available kit Referring now to FIG. 2, data in the graph below is reported as the average±SD. Commercially-available recombinant human SDF-1 (diamond) was used as a reference and positive control for comparison of proliferation stimulated by […].

In experiment [2] the test system is C2C12 cells. Kind of experiment: C2C12 cell migration, trans-well insert assay. Particulars: 8 μm pore membrane coated with collagen, FIG. 3. It counts as cell-based. The protocol:
Cell migration. SD1-1 was evaluated for its ability to induce migration of C2C12 cells using a commercially-available cell migration assay. C2C12 cells were seeded on a trans-well insert containing an 8 μm pore size polycarbonate membrane coated with a thin layer of polymerized collagen. The inserts were placed into wells with medium containing SD1-1. Cells that migrated through the membrane were found on the bottom of the insert membrane. These cells were stained, and the stain extracted and detected on a standard microplate reader (560 nm). Referring now to FIG. 3, the results of cell migration in response to the SD1-1 peptide as compared to SDF-1 peptide or control are illustrated. Data is reported as the average±SD.

The test system of a further experiment is M-NSF-60 cells. Nature of the experiment: Augmentation of growth of M-NSF-60 cells in the presence of rhGCSF. It counts as cell-based. Conditions: 0.01 ng rhGCSF, FIG. 9. The protocol:
This peptide was evaluated for augmentation of growth using M-NSF-60 cells in the presence of 0.01 ng rhGCSF.

Like-named read-outs stand apart in the source and are kept apart here. Where a SMILES comes first, the peptide text is derived from it. Bridges are numbered along the chain shown (N, C = ends). Roman numbers before positions name the chains, in order. Where no end group is shown, it is not given here. [ ]: non-standard residue; d: D form. Hx = not defined here; Ahx = NCCCCCC(=O)O

T2 sequence (P16234 24-528 limits assumed): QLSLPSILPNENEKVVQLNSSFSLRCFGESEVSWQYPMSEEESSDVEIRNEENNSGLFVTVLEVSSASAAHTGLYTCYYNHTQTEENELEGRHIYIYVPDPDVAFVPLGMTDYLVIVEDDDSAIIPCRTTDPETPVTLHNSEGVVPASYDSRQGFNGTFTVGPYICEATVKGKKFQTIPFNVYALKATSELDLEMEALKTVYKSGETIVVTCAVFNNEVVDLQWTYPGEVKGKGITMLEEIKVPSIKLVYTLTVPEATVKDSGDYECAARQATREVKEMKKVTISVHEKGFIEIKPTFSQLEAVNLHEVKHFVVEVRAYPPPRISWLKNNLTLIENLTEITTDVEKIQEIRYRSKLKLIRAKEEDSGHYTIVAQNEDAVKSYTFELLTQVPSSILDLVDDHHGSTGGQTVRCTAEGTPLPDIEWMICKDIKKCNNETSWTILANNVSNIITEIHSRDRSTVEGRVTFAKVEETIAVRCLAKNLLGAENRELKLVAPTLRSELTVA
T1 sequence (P09619 33-532 limits assumed): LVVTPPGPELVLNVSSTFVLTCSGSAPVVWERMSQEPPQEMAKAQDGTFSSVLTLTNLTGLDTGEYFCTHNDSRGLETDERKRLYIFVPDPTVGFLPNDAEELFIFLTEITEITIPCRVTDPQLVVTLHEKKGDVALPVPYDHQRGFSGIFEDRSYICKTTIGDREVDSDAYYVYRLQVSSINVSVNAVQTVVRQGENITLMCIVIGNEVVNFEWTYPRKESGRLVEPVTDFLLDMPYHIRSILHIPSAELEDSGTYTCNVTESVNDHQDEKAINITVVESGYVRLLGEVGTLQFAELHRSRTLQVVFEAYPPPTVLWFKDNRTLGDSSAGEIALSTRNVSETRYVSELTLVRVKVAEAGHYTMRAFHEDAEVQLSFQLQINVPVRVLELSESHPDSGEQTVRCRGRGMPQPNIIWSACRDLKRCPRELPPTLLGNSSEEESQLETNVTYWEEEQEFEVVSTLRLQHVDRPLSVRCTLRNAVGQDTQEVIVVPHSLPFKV

In general, Kd refers to the constant that tells how readily two partners part at equilibrium. As for `CC[C@H](C)[C@H](NC(=O)[C@H](CCCNC(=N)N)NC(=O)[C@H](CCC(=O)O)NC(=O)[C@H](CC(C)C)NC(=O)[C@H](CCCCN)NC(=O)[C@H](CCCNC(=N)N)NC(=O)[C@H](CCCCN)NC(=O)[C@H](CCCNC(=N)N)NC(=O)CCCCCNC(=O)CCCCCNC(=O)CCCCCNC(=O)[C@H](CCCCNC(=O)[C@H](CCCCN)NC(=O)[C@H](CCCCN)NC(=O)[C@H](CCCNC(=N)N)NC(=O)[C@@H](NC(=O)[C@@H](NC(=O)[C@H](CCC(=O)O)NC(=O)[C@@H](NC(=O)[C@H](CCCCN)NC(=O)[C@H](CCCNC(=N)N)NC(=O)[C@@H](N)C(C)C)[C@@H](C)CC)[C@@H](C)CC)C(C)C)NC(=O)[C@H](CCCCN)NC(=O)[C@H](CCCCN)NC(=O)[C@H](CCCNC(=N)N)NC(=O)[C@@H](NC(=O)[C@@H](NC(=O)[C@H](CCC(=O)O)NC(=O)[C@@H](NC(=O)[C@H](CCCCN)NC(=O)[C@H](CCCNC(=N)N)NC(=O)[C@@H](N)C(C)C)[C@@H](C)CC)[C@@H](C)CC)C(C)C)C(=O)N[C@@H](C)C(=O)N[C@@H](CCCNC(=N)N)C(N)=O` [PBA2-1, VRKIEIVRKKK(VRKIEIVRKK)HxHxHxRKRKLERIAR-amide] (I: H-VRKIEIVRKKK[Ahx][Ahx][Ahx]RKRKLERIAR-NH2 / II: H-VRKIEIVRKK; amide I:11-II:C), the affinity at PDGF R Beta, expressed as Kd, was 20.2 nM. Moreover, the kon is 133000 M⁻¹ s⁻¹ at PDGF R Beta (Table 3, PDGF R Beta); 353000 M⁻¹ s⁻¹ at PDGF R Beta (Table 4, Beta); 198000 M⁻¹ s⁻¹ on human PDGF-R-alpha (Table 3, PDGF R Alpha); 414000 M⁻¹ s⁻¹ at human PDGF-R-alpha (Table 4, Alpha). Also, the koff at PDGF R Beta (Table 3, PDGF R Beta) is 0.00296 s⁻¹; at PDGF R Beta (Table 4, Beta), 0.00714 s⁻¹; at human PDGF-R-alpha (Table 3, PDGF R Alpha), 0.00336 s⁻¹; at human PDGF-R-alpha (Table 4, Alpha), 0.00965 s⁻¹.

For “AISVLYFDDSSNVILKKK(AISVLYFDDSSNVILKK)HxHxHxRKRKLERIAR-amide (chain 1 AISVLYFDDSSNVILKKK-{Hx-Hx-Hx-Arg-Lys-Arg-Lys-Leu-Glu-Arg-Ile-Ala-Arg-NH2}; reading uncertain; also: chain 2 C-terminus branched onto side chain of Lys18 of chain 1, bond at chain A 18 to a chain's C-terminus) [Example B7A1-6]”, the “effect on BMP-7 activity (alkaline phosphatase activity)” value in the experiment on C2C12 cells [1] is listed as “dose-dependant suppression of the activity of BMP-7”.

Turning to “KPVSLSYRAPARFFESHVAK(KPVSLSYRAPARFFESHVA)HxHxHxRKRKLERIAR-amide [SD1-1]”, in the experiment on Sup-T1 cells, the “cell proliferation (relative cell number)” value is reported as “concentration dependent induction of cell proliferation”. Moreover, in the experiment on C2C12 cells [2], the cell migration entry was “induced cell migration”.

On to “SDF-1: Commercially-available recombinant human SDF-1 used as a reference and positive control [reference compound]”, for which the “cell proliferation (relative cell number)” value with Sup-T1 cells was “concentration dependent induction of cell proliferation”. The cell migration result in the experiment on C2C12 cells [2] is “induced cell migration”.

Turning to “SFLLKALEQVRKIQYK(SFLLKALEQVRKIQY)HxHxHxRKRKLERIAR-amide (chain 1 SFLLKALEQVRKIQYK-{Hx-Hx-Hx-Arg-Lys-Arg-Lys-Leu-Glu-Arg-Ile-Ala-Arg-NH2}; reading uncertain; also: chain 2 C-terminus branched onto side chain of Lys16 of chain 1, bond at chain A 16 to a chain's C-terminus) [GCSF1]”, in the experiment with M-NSF-60 cells, the “augmentation of cellular growth” value is listed as “augmented cellular growth”.
